In patent publication US7459414B2, “Herbicides” (Syngenta Crop Protection, Inc., priority 2002, dated 2008):

Legend:
Format in all cases: in vivo
Avena (Ave) [1] = test: Example B4 post-emergence herbicidal action, MERGE oil additive 0.7% (Table B4); design: key: 1=total damage; 9=no action; conditions: 500 g of active substance per hectare; applied at 3- to 6-leaf stage; MERGE oil additive 0.7% by weight of the spray mixture; evaluation 3 weeks after application; scale of nine ratings
Experimental: (§1) Monocotyledonous and dicotyledonous weeds are grown in standard soil in plastics pots under greenhouse conditions. The test substances are applied to the test plants at the 3- to 6-leaf stage. The test substances are applied at a rate of application of 500 g of active substance per hectare in the form of an aqueous suspension (prepared from a 25% wettable powder (Example F3, b)) or in the form of an emulsion (prepared from a 25% emulsifiable concentrate (Example F1, c)) (500 liters of water/ha). The evaluation is carried out 3 weeks after application, using a scale of nine ratings (1=total damage, 9=no action). Ratings of from 1 to 4 (especially from 1 to 3) indicate good to very good herbicidal action. Herbicidal Action After the Emergence of the Plants (Post-emergence Action) of Compounds of the Present Invention (for Description See Example B2) Test plants: Avena (Ave), Lolium (Lol), Setaria (Set).

Lolium (Lol) [2] = test: as above; design: key: 1=total damage; 9=no action; conditions: 500 g of active substance per hectare; applied at 3- to 6-leaf stage; MERGE oil additive 0.7% by weight of the spray mixture; evaluation 3 weeks after application; scale of nine ratings
Experimental: as §1

Setaria (Set) [3] = test: as above; design: key: 1=total damage; 9=no action; conditions: 500 g of active substance per hectare; applied at 3- to 6-leaf stage; MERGE oil additive 0.7% by weight of the spray mixture; evaluation 3 weeks after application; scale of nine ratings
Experimental: as §1

Avena (Ave) [4] = test: Example B3 pre-emergence herbicidal action, MERGE oil additive 0.7% (Table B3); design: key: 1=total damage; 9=no action; conditions: 500 g of active substance/ha; MERGE oil additive 0.7% by weight of the spray mixture; evaluation 3 weeks after application; scale of nine ratings
Experimental: (§2) Monocotyledonous and dicotyledonous weeds are sown in standard soil in plastics pots. Immediately after sowing, the test substances are applied in the form of an aqueous suspension (prepared from a 25% wettable powder (Example F3, b)) or in the form of an emulsion (prepared from a 25% emulsifiable concentrate (Example F1, c)) (500 liters of water/ha). The rate of application is 500 g of active substance/ha. The test plants are then grown in the greenhouse under optimum conditions. The evaluation is carried out 3 weeks after application, sing a scale of nine ratings (1=total damage, 9=no action). Ratings of from 1 to 4 (especially from 1 to 3) indicate good to very good herbicidal action. Test plants: Avena (Ave), Lolium (Lol), Setaria (Set).

Lolium (Lol) [5] = test: as above; design: key: 1=total damage; 9=no action; conditions: 500 g of active substance/ha; MERGE oil additive 0.7% by weight of the spray mixture; evaluation 3 weeks after application; scale of nine ratings
Experimental: as §2

Setaria (Set) [6] = test: as above; design: key: 1=total damage; 9=no action; conditions: 500 g of active substance/ha; MERGE oil additive 0.7% by weight of the spray mixture; evaluation 3 weeks after application; scale of nine ratings
Experimental: as §2

Alopecurus (Alo) [7] = test: Example B1 pre-emergence herbicidal action (comparison test); design: key: 1=total damage; 9=no action; conditions: 500 g of active ingredient/ha; 3 weeks after application; scale of nine ratings, 1 to 4 = good to very good action
Experimental: (§3) Monocotyledonous and dicotyledonous weeds are sown in plastics pots in standard soil. Immediately after sowing, the test substances are applied in the form of an aqueous suspension (prepared from a 25% wettable powder (Example F3, b)) or in the form of an emulsion (prepared from a 25% emulsifiable concentrate (Example F1, c)) (500 liters of water/ha). The rate of application is 500 g of active substance/ha. The test plants are then grown in the greenhouse under optimum conditions. The evaluation is carried out 3 weeks after application, using a scale of nine ratings (1=total damage, 9=no action). Ratings of from 1 to 4 (especially from 1 to 3) indicate good to very good herbicidal action. Test plants: Alopecurus (Alo), Avena (Ave), Lolium (Lol), Setaria (Set), Panicum (Pan), Sorghum (Sor), Digitaria (Dig), Echinochloa (Ech) and Brachiaria (Bra).

Avena (Ave) [8] = test: as above; design: key: 1=total damage; 9=no action; conditions: 500 g of active ingredient/ha; 3 weeks after application; scale of nine ratings, 1 to 4 = good to very good action
Experimental: as §3

Brachiaria (Bra) [9] = test: as above; design: key: 1=total damage; 9=no action; conditions: 500 g of active ingredient/ha; 3 weeks after application; scale of nine ratings, 1 to 4 = good to very good action
Experimental: as §3

Echinochloa (Ech) = test: as above; design: key: 1=total damage; 9=no action; conditions: 500 g of active ingredient/ha; 3 weeks after application; scale of nine ratings, 1 to 4 = good to very good action
Experimental: as §3

Lolium (Lol) [10] = test: as above; design: key: 1=total damage; 9=no action; conditions: 500 g of active ingredient/ha; 3 weeks after application; scale of nine ratings, 1 to 4 = good to very good action
Experimental: as §3

Panicum (Pan) [11] = test: as above; design: key: 1=total damage; 9=no action; conditions: 500 g of active ingredient/ha; 3 weeks after application; scale of nine ratings, 1 to 4 = good to very good action
Experimental: as §3

Setaria (Set) [12] = test: as above; design: key: 1=total damage; 9=no action; conditions: 500 g of active ingredient/ha; 3 weeks after application; scale of nine ratings, 1 to 4 = good to very good action
Experimental: as §3

Sorghum (Sor) [13] = test: as above; design: key: 1=total damage; 9=no action; conditions: 500 g of active ingredient/ha; 3 weeks after application; scale of nine ratings, 1 to 4 = good to very good action
Experimental: as §3

Digitaria (Dig) [14] = test: as above; conditions: 500 g of active ingredient/ha; 3 weeks after application; scale of nine ratings, 1 to 4 = good to very good action
Experimental: as §3

Alopecurus (Alo) [15] = test: Example B2 post-emergence herbicidal action (comparison test); design: key: 1=total damage; 9=no action; conditions: 250 g of active ingredient/ha; 3- to 6-leaf stage; 3 weeks after application; scale of nine ratings, 1 to 4 = good to very good action
Experimental: (§4) Monocotyledonous and dicotyledonous weeds are grown in standard soil in plastics pots under greenhouse conditions. The test substances are applied to the test plants at the 3- to 6-leaf stage. […] suspension (prepared from a 25% wettable powder (Example F3, b)) or in the form of an emulsion (prepared from a 25% emulsifiable concentrate (Example F1, c)) (500 liters of water/ha). The evaluation is carried out 3 weeks after application, using a scale of nine ratings (1=total damage, 9=no action). Ratings of from 1 to 4 (especially from 1 to 3) indicate good to very good herbicidal action. Test plants: Alopecurus (Alo), Avena (Ave), Lolium (Lol), Setaria (Set), Panicum (Pan), Sorghum (Sor), Digitaria (Dig), Echinocloa (Ech) and Brachiaria (Bra).

Avena (Ave) [16] = test: as above; design: key: 1=total damage; 9=no action; conditions: 250 g of active ingredient/ha; 3- to 6-leaf stage; 3 weeks after application; scale of nine ratings, 1 to 4 = good to very good action
Experimental: as §4

Brachiaria (Bra) [17] = test: as above; design: key: 1=total damage; 9=no action; conditions: 250 g of active ingredient/ha; 3- to 6-leaf stage; 3 weeks after application; scale of nine ratings, 1 to 4 = good to very good action
Experimental: as §4

Echinocloa (Ech) = test: as above; design: key: 1=total damage; 9=no action; conditions: 250 g of active ingredient/ha; 3- to 6-leaf stage; 3 weeks after application; scale of nine ratings, 1 to 4 = good to very good action
Experimental: as §4

Lolium (Lol) [18] = test: as above; design: key: 1=total damage; 9=no action; conditions: 250 g of active ingredient/ha; 3- to 6-leaf stage; 3 weeks after application; scale of nine ratings, 1 to 4 = good to very good action
Experimental: as §4

Panicum (Pan) [19] = test: as above; design: key: 1=total damage; 9=no action; conditions: 250 g of active ingredient/ha; 3- to 6-leaf stage; 3 weeks after application; scale of nine ratings, 1 to 4 = good to very good action
Experimental: as §4

Setaria (Set) [20] = test: as above; design: key: 1=total damage; 9=no action; conditions: 250 g of active ingredient/ha; 3- to 6-leaf stage; 3 weeks after application; scale of nine ratings, 1 to 4 = good to very good action
Experimental: as §4

Sorghum (Sor) [21] = test: as above; design: key: 1=total damage; 9=no action; conditions: 250 g of active ingredient/ha; 3- to 6-leaf stage; 3 weeks after application; scale of nine ratings, 1 to 4 = good to very good action
Experimental: as §4

Digitaria (Dig) [22] = test: as above; conditions: 250 g of active ingredient/ha; 3- to 6-leaf stage; 3 weeks after application; scale of nine ratings, 1 to 4 = good to very good action
Experimental: as §4

SMILES | Post-emergence action, rating, Ave (Avena (Ave) [1]) | Post-emergence action, rating, Lol (Lolium (Lol) [2]) | Post-emergence action, rating, Set (Setaria (Set) [3]) | other results
CCc1cc(C)cc(CC)c1-c1c(O)n2n(c1=O)CC(OCC(=O)OC)CC2 (stereo not drawn) [1.23] | 1 | 1 | 1 | 
CCc1cc(C)cc(CC)c1-c1c(O)n2n(c1=O)CC(OC(C)C(=O)OC)CC2 (stereo not drawn) [1.26] | 1 | 2 | 1 | 
CCc1cc(C)cc(CC)c1-c1c(O)n2n(c1=O)CC1OC3(CCCCC3)OC1C2 (stereo not drawn) [1.27] | 1 | 1 | 2 | 
CCc1cc(C)cc(CC)c1-c1c(O)n2n(c1=O)CC(=NOC)CC2 [1.30] | 1 | 1 | 1 | 
CCc1cc(C)cc(CC)c1-c1c(O)n2n(c1=O)CC(OCCOCCOC)C(O)C2 (stereo not drawn) [1.35] | 1 | 1 | 1 | Pre-emergence action, rating, Ave (Avena (Ave) [4]): 1; Pre-emergence action, rating, Lol (Lolium (Lol) [5]): 1; Pre-emergence action, rating, Set (Setaria (Set) [6]): 1
CCc1cc(C)cc(CC)c1-c1c(O)n2n(c1=O)CC(O)C(O)C2 (stereo not drawn) [1.39] | 1 | 1 | 1 | 
CCc1cc(C)cc(CC)c1-c1c(OC(=O)C(C)(C)C)n2n(c1=O)CC(O)C(O)C2 (stereo not drawn) [1.40] | 1 | 1 | 2 | 
CCc1cc(C)cc(CC)c1-c1c(OC(=O)C(C)(C)C)n2n(c1=O)CCC(F)(F)CC2 [1.43] | 1 | 2 | 2 | 
Cc1cc(C)c(-c2c(OC(=O)C(C)(C)C)n3n(c2=O)CCCC3)c(C)c1 [compound A, reference compound] |  |  |  | Pre-emergence action rating, Alo (Alopecurus (Alo) [7]): 2; Pre-emergence action, rating, Ave (Avena (Ave) [8]): 4; Pre-emergence action rating, Bra (Brachiaria (Bra) [9]): 3; Pre-emergence action rating, Ech (Echinochloa (Ech)): 5; Pre-emergence action, rating, Lol (Lolium (Lol) [10]): 1; Pre-emergence action rating, Pan (Panicum (Pan) [11]): 1; Pre-emergence action, rating, Set (Setaria (Set) [12]): 2; Pre-emergence action rating, Sor (Sorghum (Sor) [13]): 4; Pre-emergence action rating, Dig (Digitaria (Dig) [14]): 4; Post-emergence action rating, Alo (Alopecurus (Alo) [15]): 3; Post-emergence action, rating, Ave (Avena (Ave) [16]): 3; Post-emergence action rating, Bra (Brachiaria (Bra) [17]): 2; Post-emergence action rating, Ech (Echinocloa (Ech)): 1; Post-emergence action, rating, Lol (Lolium (Lol) [18]): 2; Post-emergence action rating, Pan (Panicum (Pan) [19]): 1; Post-emergence action, rating, Set (Setaria (Set) [20]): 2; Post-emergence action rating, Sor (Sorghum (Sor) [21]): 3; Post-emergence action rating, Dig (Digitaria (Dig) [22]): 2
